| SMILES | logP |
| --- | --- |
| NC(=O)c1ccccc1Cl | 0.64 |
| CC(=O)Nc1cccc(Cl)c1C | 1.82 |
| O=[N+]([O-])c1ccc(Cl)cc1[N+](=O)[O-] | 2.18 |
| CC(=O)Nc1cc(F)cc(C(F)(F)F)c1Cl | 2.86 |
| CC(=O)Nc1cc([N+](=O)[O-])c(Br)cc1F | 2.11 |
| CC(=O)Nc1cc(C(F)(F)F)ccc1F | 2.24 |
| CCCc1cc(NC(C)=O)ccc1OC | 2.72 |
| CC(=O)Nc1c(C)cccc1[N+](=O)[O-] | 0.61 |
| CC(=O)Nc1ccc(C)cc1[N+](=O)[O-] | 1.49 |
| CC(=O)Nc1ccc(Oc2ccccn2)cc1 | 1.57 |
| CC(=O)Nc1cc(Cl)cc(Cl)c1 | 3.17 |
| COc1cccc(Cl)c1C(N)=O | 0.59 |
| NC(=O)c1c(Cl)cccc1[N+](=O)[O-] | 0.12 |
| CC(=O)Nc1cccc([N+](=O)[O-])c1 | 1.47 |
| N#Cc1ccc(C(N)=O)cc1 | 0.48 |
| CC(=O)Nc1cc(Br)cc(C(F)(F)F)c1Cl | 3.41 |
| CCCCc1ccc(NC(C)=O)c([N+](=O)[O-])c1 | 3.1 |
| CCOc1ccc(C(N)=O)cc1 | 1.3 |
| CCc1cccc(C)c1NC(C)=O | 1.41 |
| CC(C)(C)c1ccc(C(N)=O)cc1 | 2.51 |
| NC(=O)c1c(F)cccc1F | 0.25 |

| SMILES | logP |
| --- | --- |
| NC(=O)c1c(Br)cccc1[N+](=O)[O-] | 0.28 |
| CC(=O)Nc1cc(Cl)c(F)c(Cl)c1F | 2.9 |
| CC(=O)Nc1ccc(Cl)c(Cl)c1Cl | 2.88 |
| CCc1cccc(C(C)C)c1NC(C)=O | 2.1 |
| CC(=O)Nc1c(F)ccc(C(F)(F)F)c1Br | 2.22 |
| NC(=O)c1ccccc1C(F)(F)F | 0.68 |
| CCc1cc(Br)ccc1NC(C)=O | 2.27 |
| CCc1ccccc1C(N)=O | 1.17 |
| CCc1ccccc1OC | 3.18 |
| COc1cccc([N+](=O)[O-])c1C(N)=O | -0.26 |
| CC(=O)Nc1c([N+](=O)[O-])cccc1[N+](=O)[O-] | 0.56 |
| NC(=O)c1c(F)cccc1Cl | 0.49 |
| COc1cccc(OC)c1 | 2.21 |
| N#Cc1ccccc1[N+](=O)[O-] | 1.02 |
| CCc1cc(NC(C)=O)ccc1Br | 3.33 |
| CC(=O)Nc1c(C)cccc1C | 1.07 |
| CC(=O)Nc1cccc(Cl)c1F | 1.83 |
| CC(=O)Nc1cccc(F)c1 | 1.65 |
| CC(=O)Nc1ccccc1Oc1ccccc1 | 2.37 |
| CC(=O)Nc1ccc(C)c(Cl)c1 | 2.69 |
| CC(=O)Nc1cc(OC(F)(F)F)c(Cl)cc1Cl | 3.71 |

| SMILES | logP |
| --- | --- |
| COc1cc(Br)ccc1NC(C)=O | 2.02 |
| CC(C)c1ccccc1[N+](=O)[O-] | 3.34 |
| CC(=O)Nc1ccc(OC(F)(F)F)cc1 | 2.62 |
| CC(=O)Nc1ccc(C)cc1C | 1.46 |
| CC(=O)Nc1ccc(Cl)cc1[N+](=O)[O-] | 1.78 |
| COc1ccccc1C(=O)N(C)C | 0.71 |
| CC(=O)Nc1ccc(Br)c(C)c1Cl | 2.73 |
| CC(=O)Nc1c(Br)cccc1Br | 1.53 |
| CCCCc1ccc(NC(C)=O)c(C)c1 | 3.1 |
| CC(=O)Nc1cccc(Cl)c1 | 2.15 |
| CC(=O)Nc1cc(Cl)ccc1C | 1.82 |
| CCCCc1ccc(NC(C)=O)cc1C | 3.64 |
| COc1cccc([N+](=O)[O-])c1C | 2.68 |
| CCc1ccc(NC(C)=O)cc1 | 2.2 |
| CC(=O)Nc1cc(C(F)(F)F)cc(C(F)(F)F)c1 | 3.72 |
| O=[N+]([O-])c1cc(C(F)(F)F)cc([N+](=O)[O-])c1Cl | 2.5 |
| COc1ccc(NC(C)=O)c([N+](=O)[O-])c1 | 1.09 |
| NC(=O)c1ccccc1Br | 0.77 |
| CC(=O)Nc1ccccc1C(F)(F)F | 1.17 |
| CC(=O)Nc1ccc(C)c(C)c1C | 1.76 |
| CC(=O)Nc1ccc(Cl)c(Cl)c1 | 3 |

Continued, values first:

| logP | SMILES |
| --- | --- |
| 2.69 | CC(=O)Nc1ccc(Br)c(Cl)c1C |
| 2.1 | CC(=O)Nc1ccc(C)c(C)c1 |
| 2.76 | C=CCOc1cc(NC(C)=O)c(F)cc1Cl |
| 1.3 | COc1cccc(NC(C)=O)c1 |
| 0.63 | NC(=O)c1c(F)cccc1Br |
| 2.24 | CC(=O)Nc1cc(C(F)(F)F)ccc1Cl |
| 3.26 | CC(=O)Nc1cc(Cl)cc(C(F)(F)F)c1Br |
| 1.13 | COc1cccc(NC(C)=O)c1C |
| 0.52 | N#Cc1cccc(C(N)=O)c1 |
| 1.98 | CC(=O)Nc1ccc(Cl)cc1C(F)(F)F |
| 0.1 | Cc1cccc([N+](=O)[O-])c1C(N)=O |
| 0.6 | CC(=O)Nc1cc(C)c(O)cc1C |
| -0.22 | COc1cccc(OC)c1C(N)=O |
| 2.18 | CC(=O)Nc1ccc(Cl)cc1Cl |
| 0.89 | Cc1cccc(Cl)c1C(N)=O |
| 3.15 | CC(=O)Nc1cc(Cl)cc(C(F)(F)F)c1F |
| 3.27 | CC(=O)Nc1cc(C(F)(F)F)cc(Cl)c1Cl |
| 0.59 | NC(=O)c1ccccc1F |
| 2.69 | COc1ccc(OC)c(Cl)c1 |
| 2.34 | CC(=O)Nc1cc(C(F)(F)F)c(F)cc1F |
| 3.28 | CC(=O)Nc1cc(C)c(Br)c(C)c1 |
| 1.81 | COc1ccc(NC(C)=O)cc1Cl |
| 2.76 | COc1ccc(C)c(OC)c1 |
| 1.85 | CCc1cccc(CC)c1NC(C)=O |

| logP | SMILES |
| --- | --- |
| 2.86 | COc1ccccc1Br |
| 3.17 | CC(=O)Nc1cc(C(F)(F)F)c(Br)cc1F |
| 3.24 | CC(=O)Nc1cc(C(F)(F)F)c(Cl)cc1Cl |
| 0.77 | NC(=O)c1c(Cl)cccc1Cl |
| 1.22 | CC(=O)Nc1c(C)cccc1Cl |
| 1.7 | CC(=O)Nc1c(F)c(F)c(F)c(F)c1F |
| 2.14 | COc1ccccc1F |
| 1 | NC(=O)c1c(Cl)cccc1Br |
| 2.31 | CC(=O)Nc1cccc(Br)c1 |
| 2.09 | CC(=O)Nc1cccc(Cl)c1Cl |
| 1.47 | CC(=O)Nc1cc(C)ccc1C |
| 1.35 | CC(=O)Nc1cccc(C)c1C |
| 0.69 | CC(=O)Nc1c(F)cccc1F |
| 2.68 | COc1ccccc1Cl |
| 2.86 | CC(=O)Nc1ccc(Br)c(Cl)c1F |
| 3.76 | CC(=O)Nc1cc(Cl)c(Cl)c(Cl)c1 |
| 0.93 | NC(=O)c1ccccc1I |
| 1.68 | COc1c(Cl)cccc1NC(C)=O |
| 3.02 | CC(=O)Nc1cc(C(F)(F)F)c(Cl)cc1F |
| 2.02 | CC(=O)Nc1ccccc1-c1ccccc1 |
| 2.87 | COc1cccc(OC)c1C |
| 2.12 | CC(=O)Nc1c(C)cc(Br)cc1C |
| 1.28 | COc1c(C)cccc1NC(C)=O |
| 1.91 | CC(=O)Nc1ccc(Cl)cc1F |

| logP | SMILES |
| --- | --- |
| 3.3 | CCCCc1ccc(NC(C)=O)cc1 |
| 2.5 | CC(=O)Nc1cc(C)c(C)c(C)c1 |
| 3.27 | CC(=O)Nc1cc(Cl)cc(C(F)(F)F)c1Cl |
| 0.76 | Cc1ccccc1C(N)=O |
| 0.01 | CC(=O)Nc1ccc(C(N)=O)cc1 |
| 1.32 | CCc1ccccc1NC(C)=O |
| 1.32 | CC(=O)Nc1c(Cl)cccc1Cl |
| 1.18 | CC(=O)Nc1c(C)cc(C)cc1[N+](=O)[O-] |
| 3.39 | CCCCc1ccc(NC(C)=O)c(Br)c1 |
| 3.04 | CC(=O)Nc1cc(Cl)cc(Cl)c1Br |
| 2.19 | CC(=O)Nc1cc(Cl)ccc1Cl |
| 1.39 | CC(C)c1ccccc1C(N)=O |
| 1.7 | CC(=O)Nc1ccc(C)cc1 |
| 2.8 | CC(=O)Nc1ccc(Br)c(C)c1 |
| 3.33 | CC(=O)Nc1ccc(Cl)c(C(F)(F)F)c1 |
| 1.62 | CC(=O)Nc1ccccc1I |
| 2.17 | CC(=O)Nc1cc(C)cc(C)c1 |
| 1.03 | CC(=O)Nc1ccccc1F |
| 1 | NC(=O)c1c(Br)cccc1Br |
| 1.34 | CC(=O)Nc1ccccc1Br |
| 2.41 | CC(=O)Nc1c(C(C)C)cccc1C(C)C |
| 0.99 | N#Cc1ccccc1C#N |
| 2.03 | CC(=O)Nc1ccc(Br)cc1C |
| 0.9 | Cc1cccc(C)c1C(N)=O |

— the OPERA property sets (Mansouri et al. 2018)
